Laboratory results reported in patent US11800874B2, “Composition comprising a selective herbicide and an algal extract, use of an algal extract for detoxifying plants subjected to treatment with a selective herbicide” (LABORATOIRES GOËMAR, priority 2014, dated 2023).
Like-named read-outs stand apart in the source and are kept apart here.

Columns and labels:
Conventional soybean [1] = settings: in vivo
From the text: (§1) Conventional soybean (that is to say not genetically modified and therefore not resistant to glyphosate) was planted in a greenhouse and left to grow until the 5-leaf stage.
(§2) A control batch was also cultivated, onto which water was sprayed.

Conventional soybean [2] = settings: in vivo; remark: listed apart in the source
From the text: as §1, §2

[3] = system: Glyphosate-resistant soybean; assay: Phytotoxicity of spray treatments on glyphosate-resistant soybean (Example 1); settings: 4 weeks after treatment
From the text: Glyphosate-resistant soybean was planted in a greenhouse and left to grow until the 5-leaf stage. It was separated into different batches, which were each treated by spraying with the following different compositions:
as §2

Manganese-EDTA complex [Mn]
0%: Necrosed surface area (Conventional soybean [1]) | Plants having a necrosed leaf (Conventional soybean [1]) | Necrosed surface area (Conventional soybean [2]) | Plants having a necrosed leaf (Conventional soybean [2]) | Necrosed surface area ([3]; sprayed composition 0.25% w/v) | Plants having a necrosed leaf ([3]; sprayed composition 0.25% w/v) | Necrosed surface area ([3]; sprayed composition 0.5% w/v) | Plants having a necrosed leaf ([3]; sprayed composition 0.5% w/v)
